Laboratory results: paper PMC4578723 (Biochemical and biophysical research communications, 2013)

Target: PTEN (Homo sapiens, UniProt P60484)
Test: absorbance […] nm, pNPP hydrolysis
Assay type: biochemical
Conditions: 100 mM pNPP; 25 °C; Tris-HCl pH 8.0

PTEN, sequence (P60484 2-403): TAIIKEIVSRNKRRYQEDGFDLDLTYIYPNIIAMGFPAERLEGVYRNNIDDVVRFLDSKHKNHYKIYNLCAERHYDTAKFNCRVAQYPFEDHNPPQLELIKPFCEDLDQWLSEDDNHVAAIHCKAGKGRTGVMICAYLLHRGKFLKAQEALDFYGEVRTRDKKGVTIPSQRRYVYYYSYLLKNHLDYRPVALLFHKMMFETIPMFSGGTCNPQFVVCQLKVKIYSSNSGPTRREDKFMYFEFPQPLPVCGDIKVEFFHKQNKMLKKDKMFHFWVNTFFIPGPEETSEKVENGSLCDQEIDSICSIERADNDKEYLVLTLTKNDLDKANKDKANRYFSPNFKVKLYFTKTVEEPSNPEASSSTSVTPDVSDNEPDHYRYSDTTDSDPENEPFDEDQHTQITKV

In the case of `O=[N+]([O-])c1ccc(OP(=O)(O)O)cc1` [pNPP], the “absorbance 405 nm, pNPP hydrolysis” value is reported as “in vitro activity and affinity for pNPP substrate are similar for both INPP4B and PTEN”.
